Experimental data reported in patent US6403607B1, “Sulfonamide derivatives and drugs containing the same as the active ingredient” (priority 1998, dated 2002).
In brackets after ≈: the same amount, converted by molar mass. Like-named read-outs stand apart in the source and are kept apart here.

Legend:
H/K-ATPase = H/K-ATPase (Oryctolagus cuniculus, UniProt P27112); assay: H/K-ATPase inhibition; format: biochemical; conditions: pH 7.4, H/K-ATPase from rabbit gastric mucous membrane
Protocol: H/K-ATPase Inhibition The inhibitory effect was measured under pH 7.4, by using H/K-ATPase isolated and purified from the rabbit gastric mucous membrane.

rat red blood cell = assay: Hemolytic action; format: cell-based; conditions: 10% rat red blood cell stock, 1% DMSO containing saline, 30 minutes at 37° C., absorbance 540 nm
Protocol: Hemolytic Action […] After incubation for 30 minutes at, 37° C., the mixture was centrifugally separated and the supernatant was obtained. The absorbance (540 nm) of the supernatant was measured. The hemolysis ratio was calculated.

[1] = test system: HCl-ethanol ulcer in the gland gastric region; assay: HCl-ethanol ulcer; format: in vivo, Rats
Protocol: HCl-ethanol Ulcer Rats were fasted for 24 hours and orally administered with a drug. After one hour, 60% ethanol containing 0.15 N hydrochloric acid (1 ml/rat) was perorally administered to each rat. One hour after ethanol administration, the size of ulcer in the gland gastric region was measured for evaluation of anti-ulcer effects of the drug.

[2] = test system: ethanol ulcer in the gland gastric region; assay: Ethanol ulcer; format: in vivo; conditions: rats fasted 24 hours, drug oral, 99.5% ethanol 1 ml/rat after one hour, size of ulcer one hour later; for Suppression: dose not given
Protocol: Ethanol Ulcer Rats were fasted for 24 hours and orally administered with a drug. After one hour, 99.5% ethanol (1 ml/rat) was fed through oral administration. After one hour of ethanol administration, the abdomens of the rats were dissected and the size of ulcer in the gland gastric region was measured for each rat.

Helicobacter pylori = assay: Anti-Helicobacter-pylori action (agar plate dilution MIC); format: cell-based; conditions: clinically isolated 10 bacterial strains, agar plate dilution method
Protocol: Anti-Helicobacter-pylori Action
Using clinically isolated 10 bacterial strains, the minimum inhibitory concentration (MIC) was measured according to the agar plate dilution method.

[3] = rats fasted 24 hours, drug oral, 60% ethanol containing 0.15 N hydrochloric acid 1 ml/rat after one hour, size of ulcer one hour later, dose not given
[4] = Helicobacter pylori, read-out: MIC

H/K-ATPase, sequence (P27112 whole entry): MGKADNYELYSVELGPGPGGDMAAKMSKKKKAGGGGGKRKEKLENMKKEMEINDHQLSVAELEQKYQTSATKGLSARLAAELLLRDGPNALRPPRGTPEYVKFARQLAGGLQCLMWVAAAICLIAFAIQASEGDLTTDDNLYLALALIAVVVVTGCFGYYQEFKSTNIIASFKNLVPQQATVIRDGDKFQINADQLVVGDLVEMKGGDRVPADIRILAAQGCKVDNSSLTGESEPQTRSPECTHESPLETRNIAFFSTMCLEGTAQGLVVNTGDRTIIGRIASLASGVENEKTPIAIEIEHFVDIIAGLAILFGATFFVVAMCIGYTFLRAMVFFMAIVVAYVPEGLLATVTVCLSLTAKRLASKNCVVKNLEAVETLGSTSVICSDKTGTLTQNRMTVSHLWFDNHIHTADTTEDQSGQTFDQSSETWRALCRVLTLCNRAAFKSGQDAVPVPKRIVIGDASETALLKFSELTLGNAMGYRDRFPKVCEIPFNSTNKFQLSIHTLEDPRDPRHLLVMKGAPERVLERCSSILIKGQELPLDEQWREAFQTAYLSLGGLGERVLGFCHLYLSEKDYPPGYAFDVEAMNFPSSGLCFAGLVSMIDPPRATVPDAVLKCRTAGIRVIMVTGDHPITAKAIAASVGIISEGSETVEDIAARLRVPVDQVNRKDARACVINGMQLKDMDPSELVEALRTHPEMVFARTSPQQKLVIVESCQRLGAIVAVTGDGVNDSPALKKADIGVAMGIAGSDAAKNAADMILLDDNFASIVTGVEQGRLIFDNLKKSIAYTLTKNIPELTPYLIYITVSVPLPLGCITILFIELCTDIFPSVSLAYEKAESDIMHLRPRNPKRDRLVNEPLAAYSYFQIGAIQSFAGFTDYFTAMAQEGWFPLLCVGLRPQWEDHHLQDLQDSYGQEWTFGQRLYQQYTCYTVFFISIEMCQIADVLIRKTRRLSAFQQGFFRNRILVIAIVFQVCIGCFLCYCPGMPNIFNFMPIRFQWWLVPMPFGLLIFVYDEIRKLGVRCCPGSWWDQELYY
H/K-ATPase, sequence (P18597 whole entry partner): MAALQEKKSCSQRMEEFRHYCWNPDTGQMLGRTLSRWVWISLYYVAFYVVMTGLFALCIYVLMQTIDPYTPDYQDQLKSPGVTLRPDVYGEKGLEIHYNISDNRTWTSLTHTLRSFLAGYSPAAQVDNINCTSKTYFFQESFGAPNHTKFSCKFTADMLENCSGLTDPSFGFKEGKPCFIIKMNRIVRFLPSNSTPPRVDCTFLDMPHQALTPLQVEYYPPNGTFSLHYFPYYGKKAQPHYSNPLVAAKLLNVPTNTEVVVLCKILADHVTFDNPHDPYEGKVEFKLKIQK

| SMILES | HC50 (rat red blood cell) | Suppression [1, 3] | other results |
| --- | --- | --- | --- |
| CCCCCCCS(=O)(=O)N(CCOCCN)c1ccccc1NCCOc1ccc(Cl)cc1 [Example 29, N-[2-(2-Amino)ethoxyethyl]-N-(1-heptanesulfonyl)-N′-[2-(4-chlorophenoxy)ethyl]-o-phenylenediamine] |  |  | IC50 (H/K-ATPase): 5 µM |
| CN(C)CCN(c1ccccc1NCCOc1ccc(Cl)cc1)S(=O)(=O)c1ccccc1Cl.Cl [Example 51, N-[2-(Dimethylamino)ethyl]-N-(2-chlorobenzenesulfonyl)-N′-[2-(4-chlorophenoxy)ethyl]-o-phenylenediamine Hydrochloride] | 84.6 µg/mL | 83% |  |
| CN(C)CCN(c1ccccc1NCCOc1ccc(Cl)cc1)S(=O)(=O)c1cccc2cnccc12.Cl [Example 57, N-[2-(Dimethylamino)ethyl]-N-(5-isoquinolinesulfonyl)-N′-[2-(4-chlorophenoxy)ethyl]-o-phenylenediamine Hydrochloride] | >100 µg/mL |  |  |
| CCCCCCS(=O)(=O)N(CCN(C)C)c1ccccc1NCCOc1ccc(Cl)cc1.Cl [Example 32, N-[2-(Dimethylamino)ethyl]-N-(1-hexanesulfonyl)-N′-[2-(4-chlorophenoxy)ethyl]-o-phenylenediamine Hydrochloride] | >100 µg/mL | 88% |  |
| NCCOCCN(c1ccccc1NCCOc1ccc(Cl)cc1)S(=O)(=O)c1ccc(Cl)cc1.O=C(O)C(O)C(O)C(=O)O [Example 4, N-[2-(2-Aminoethoxy)ethyl]-N-(4-chlorobenzenesulfonyl)-N′-[2-(4-chlorophenoxy)ethyl]-o-phenylenediamine Tartaric Acid Salt] |  |  | Suppression [2]: 85%; ED50 ([2]; read-out: ED50): 5.3 mg/kg; IC50 (H/K-ATPase): 7.4 µM; MIC (Helicobacter pylori; [4]): 25 to 50 µg/mL |
| CS(=O)(=O)N(CCOCCN)c1ccccc1NCCOc1ccc(Cl)cc1 [Example 22, N-[2-(2-Amino)ethoxyethyl]-N-(methanesulfonyl)-N′-[2-(4-chloro)phenoxyethyl]-o-phenylenediamine] | 55.7 µg/mL |  | IC50 (H/K-ATPase): 190 µM |
| CCS(=O)(=O)N(CCOCCN)c1ccccc1NCCOc1ccc(Cl)cc1 [Example 23, N-[2-(2-Amino)ethoxyethyl]-N-(1-ethanesulfonyl)-N′-[2-(4-chlorophenoxy)ethyl]-o-phenylenediamine] |  |  | Suppression [2]: 98%; IC50 (H/K-ATPase): 230 µM |
| CN(C)CCN(c1ccccc1N1CCOCC1)S(=O)(=O)c1ccc(Cl)cc1.Cl [Example 128, 2-(4-Morpholino)-1-[N-[2-(dimethylamino)ethyl]-N-(4-chlorobenzenesulfonyl)]aminobenzene Hydrochloride Salt] | >100 µg/mL |  |  |
| CCCCCS(=O)(=O)N(CCOCCN)c1ccccc1NCCOc1ccc(Cl)cc1 [Example 27, N-[2-(2-Amino)ethoxyethyl]-N-(1-pentanesulfonyl)-N′-[2-(4-chlorophenoxy)ethyl]-o-phenylenediamine] |  |  | IC50 (H/K-ATPase): 38 µM |
| CN(C)CCN(c1ccccc1NCCOc1ccccc1)S(=O)(=O)c1ccc(Cl)cc1.Cl [Example 50, N-[2-(Dimethylamino)ethyl]-N-(4-chlorobenzenesulfonyl)-N′-(2-phenoxyethyl)-o-phenylenediamine Hydrochloride] | >100 µg/mL | 81% |  |
| CN(C)CCN(c1ccccc1Sc1ccc(Cl)cc1)S(=O)(=O)c1ccc(Cl)cc1.Cl [Example 142, 2-(4-Chlorophenylthio)-N-(4-chlorobenzenesulfonyl)-N-(2-dimethylaminoethyl)aniline.HCl] |  | 98% |  |
| CCS(=O)(=O)N(CCN(C)C)c1ccccc1NCCOc1ccc(Cl)cc1.Cl [Example 30, N-[2-(Dimethylamino)ethyl]-N-ethanesulfonyl-N′-[2-(4-chlorophenoxy)ethyl]-o-phenylenediamine Hydrochloride] | >100 µg/mL |  |  |
| CN(C)CCN(c1ccccc1N1CCNCC1)S(=O)(=O)c1ccc(Cl)cc1.Cl [Example 129, 2-(1-Piperazino)-1-[N-[2-(dimethylamino)ethyl]-N-(4-chlorobenzenesulfonyl)]aminobenzene Hydrochloride Salt] | >100 µg/mL |  |  |
| CN(C)CCN(c1ccccc1NCCOc1ccc(Cl)cc1)S(=O)(=O)c1ccc(Br)cc1.Cl [Example 44, N-[2-(Dimethylamino)ethyl]-N-(4-bromobenzenesulfonyl)-N′-[2-(4-chlorophenoxy)ethyl]-o-phenylenediamine.HCl] |  |  | Suppression ([1]; rat, in vivo, po): 87% |
| CN(C)CCN(c1ccccc1Oc1ccc(Cl)cc1)S(=O)(=O)c1ccc(Cl)cc1.Cl [Example 145, 1-[N-[2-(Dimethylamino)ethyl]-N-(4-chlorobenzenesulfonyl)]-2-(4-chlorophenoxy)aniline.HCl] | >100 µg/mL |  |  |
| COc1ccc(S(=O)(=O)N(CCN(C)C)c2ccccc2NCCOc2ccc(Cl)cc2)cc1.Cl [Example 40, N-[2-(Dimethylamino)ethyl]-N-(4-methoxybenzenesulfonyl)-N′-[2-(4-chlorophenoxy)ethyl]-o-phenylenediamine Hydrochloride] | >100 µg/mL | 88% |  |
| CCCCCCS(=O)(=O)N(CCOCCN)c1ccccc1NCCOc1ccc(Cl)cc1 [Example 28, N-[2-(2-Amino)ethoxyethyl]-N-(1-hexanesulfonyl)-N′-[2-(4-chlorophenoxy)ethyl]-o-phenylenediamine] |  |  | Suppression [2]: 100%; IC50 (H/K-ATPase): 79 µM |
| CN(C)CCN(c1ccccc1NCCOc1cccc(Cl)c1)S(=O)(=O)c1ccc(Cl)cc1.Cl [Example 58, N-[2-(Dimethylamino)ethyl]-N-(4-chlorobenzenesulfonyl)-N′-[2-(3-chlorophenoxy)ethyl]-o-phenylenediamine Hydrochloride] | 71.2 µg/mL | 88% |  |
| CN(C)CCN(c1ccccc1NCCOc1ccc(Cl)cc1)S(=O)(=O)c1ccc(F)cc1.Cl [Example 42, N-[2-(Dimethylamino)ethyl]-N-(4-fluorobenzenesulfonyl)-N′-[2-(4-chlorophenoxy)ethyl]-o-phenylenediamine Hydrochloride] | >100 µg/mL | 91% |  |
| CN(C)CCN(c1ccccc1NCCOc1ccc(Cl)cc1)S(=O)(=O)c1ccc(Cl)cc1.CN(C)CCN(c1ccccc1NCCOc1ccc(Cl)cc1)S(=O)(=O)c1ccc(Cl)cc1.O=C(O)C(O)C(O)C(=O)O [Example 3, N-(4-Chlorobenzenesulfonyl)-N-(2-dimethylaminoethyl)-N′-[2-(4-chlorophenoxy)ethyl]-o-phenylenediamine ½ Tartaric Acid Salt] | 72.3 µg/mL | 91% | ED50 [2]: 14 mg/kg; Suppression [2]: 88%; MIC (Helicobacter pylori): 0.78 to 3.13 µg/mL |
| Cc1ccc(OCCNc2ccccc2N(CCN(C)C)S(=O)(=O)c2ccc(Cl)cc2)cc1.Cl [Example 53, N-[2-(Dimethylamino)ethyl]-N-(4-chlorobenzenesulfonyl)-N′-[2-(4-methylphenoxy)ethyl]-o-phenylenediamine Hydrochloride] |  | 92% |  |
| NCCOCCN(c1ccccc1Oc1ccc(Cl)cc1)S(=O)(=O)c1ccc(Cl)cc1 [Example 144, 1-[N-[2-(2-Aminoethoxy)ethyl]-N-(4-chlorobenzenesulfonyl)]-2-(4-chlorophenoxy)aniline] |  |  | IC50 (H/K-ATPase): 11.4 µM; MIC (Helicobacter pylori; [4]): 25 to 50 µg/mL (≈ 51.9 to 104 µM) |
| CN(C)CCN(c1ccccc1NCCOc1ccc(F)cc1)S(=O)(=O)c1ccc(Cl)cc1.Cl [Example 48, N-[2-(Dimethylamino)ethyl]-N-(4-chlorobenzenesulfonyl)-N′-[2-(4-fluorophenoxy)ethyl]-o-phenylenediamine Hydrochloride] |  | 85% |  |
| CN(C)CCN(c1ccccc1N1CCCN(c2ccc(Cl)cc2)CC1)S(=O)(=O)c1ccc(Cl)cc1.Cl [Example 135, 2-[4-(4-Chlorophenyl)-1-homopiperazino]-1-[N-[2-(dimethylamino)ethyl]-N-(4-chlorobenzenesulfonyl)]aminobenzene.HCl] |  | 89% |  |
| CN(C)CCN(c1ccccc1NCCOc1ccc(Cl)cc1)S(=O)(=O)c1cccc2ccccc12.Cl [Example 38, N-[2-(Dimethylamino)ethyl]-N-(1-naphthalenesulfonyl)-N′-[2-(4-chlorophenoxy)ethyl]-o-phenylenediamine Hydrochloride] |  | 93% |  |
| NCCN(c1cccnc1NCCNc1ccc(Cl)cc1)S(=O)(=O)c1ccc(Cl)cc1 [Example 86, 3-[N-(4-Chlorobenzenesulfonyl)-N-(2-aminoethyl)]amino-2-[2-(4-chlorophenyl)aminoethyl]aminopyridine] |  |  | Suppression [2]: 79%; IC50 (H/K-ATPase): 1.1 µM |
| CN(C)CCN(c1ccccc1N1CCN(c2ccc(Cl)cc2)CC1)S(=O)(=O)c1ccc(Cl)cc1 [Example 132, 2-[4-(4-Chlorophenyl)-1-piperazino]-1-[N-[2-(dimethylamino)ethyl]-N-(4-chlorobenzenesulfonyl)]aminobenzene] |  | 88% | MIC (Helicobacter pylori): 3.13 to 12.5 µg/mL |
